Inconclusive results and toxic doses are left out.
System: P388 leukemia ip, CD2F1 mice, survival T/C
Assay: NCI In Vivo Anticancer Drug Screen. Data for tumor model P388 Leukemia (intraperitoneal) in CD2F1 (CDF1) mice
Conditions: endpoint: median survival time, higher = longer survival
How it was run: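 Mice carrying the transplanted tumor received test compound or vehicle. Survival was recorded in each group, and the value is the treated-group measurement divided by that of the vehicle-treated control group.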

[1] = dose: 60.0 mg/kg/injection, schedule: Q01DX005 (ip), vehicle: saline with Tween-80
[2] = dose: 120.0 mg/kg/injection, schedule: Q01DX005 (ip), vehicle: saline with Tween-80
[3] = dose: 100.0 mg/kg/injection, schedule: Q01DX001 (ip), vehicle: Klucel (hydroxypropylcellulose) (HPC)
[4] = dose: 200.0 mg/kg/injection, schedule: Q01DX001 (ip), vehicle: Klucel (hydroxypropylcellulose) (HPC)
[5] = dose: 400.0 mg/kg/injection, schedule: Q01DX001 (ip), vehicle: Klucel (hydroxypropylcellulose) (HPC)
[6] = dose: 50.0 mg/kg/injection, schedule: Q01DX009 (ip), vehicle: saline with Tween-80
[7] = dose: 100.0 mg/kg/injection, schedule: Q01DX009 (ip), vehicle: saline with Tween-80
[8] = dose: 200.0 mg/kg/injection, schedule: Q01DX009 (ip), vehicle: saline with Tween-80
[9] = dose: 50.0 mg/kg/injection, schedule: Q01DX005 (ip), vehicle: Klucel (hydroxypropylcellulose) (HPC)
[10] = dose: 100.0 mg/kg/injection, schedule: Q01DX005 (ip), vehicle: Klucel (hydroxypropylcellulose) (HPC)
[11] = dose: 200.0 mg/kg/injection, schedule: Q01DX005 (ip), vehicle: Klucel (hydroxypropylcellulose) (HPC)
[12] = dose: 50.0 mg/kg/injection, schedule: Q04DX002 (ip), vehicle: saline with Tween-80
[13] = dose: 100.0 mg/kg/injection, schedule: Q04DX002 (ip), vehicle: saline with Tween-80

O=S(=O)(C#Cc1ccccc1)C(F)(F)F
T/C (dose: 100.0 mg/kg/injection, schedule: Q01DX001 (ip), vehicle: saline): 105 % of control | T/C (dose: 200.0 mg/kg/injection, schedule: Q01DX001 (ip), vehicle: saline): 105 % of control | T/C (dose: 400.0 mg/kg/injection, schedule: Q01DX001 (ip), vehicle: saline): 106 % of control

CC(=O)OC1(C)CC1(C)C (stereo unspecified)
T/C (dose: 50.0 mg/kg/injection, schedule: Q01DX005 (ip), vehicle: saline with Tween-80): 100 % of control | T/C (dose: 100.0 mg/kg/injection, schedule: Q01DX005 (ip), vehicle: saline with Tween-80): 98 % of control | T/C (dose: 200.0 mg/kg/injection, schedule: Q01DX005 (ip), vehicle: saline with Tween-80): 98 % of control

c1ccc(CC(Nc2cccnc2)c2ccccc2)cc1 (stereo unspecified)
T/C (dose: 60.0 mg/kg/injection, schedule: Q01DX005 (ip), vehicle: Klucel (hydroxypropylcellulose) (HPC)): 98 % of control | T/C (dose: 120.0 mg/kg/injection, schedule: Q01DX005 (ip), vehicle: Klucel (hydroxypropylcellulose) (HPC)): 104 % of control | T/C (dose: 240.0 mg/kg/injection, schedule: Q01DX005 (ip), vehicle: Klucel (hydroxypropylcellulose) (HPC)): 101 % of control

CC12CC3CC(C)(C1)CC(SCCN)(C3)C2
T/C [1]: 105 % of control | T/C [2]: 100 % of control

CCN(CC)c1c(C)c(-c2ccccc2)n[n+]([O-])c1-c1ccccc1
T/C [3]: 104 % of control | T/C [4]: 107 % of control | T/C [5]: 104 % of control

COc1ccc(NC(=S)NC(=O)c2ccccc2)cc1OC
T/C [6]: 99 % of control | T/C [7]: 100 % of control | T/C [8]: 107 % of control

CCOC(=O)/C(C#N)=C(\C)c1ccccc1
T/C [6]: 99 % of control

CCCCCCc1cc(-c2cc(CCCCCC)nc(N)n2)nc(N)n1
T/C (dose: 60.0 mg/kg/injection, schedule: Q01DX005 (ip), vehicle: saline): 100 % of control | T/C (dose: 120.0 mg/kg/injection, schedule: Q01DX005 (ip), vehicle: saline): 115 % of control

COc1ccc(C)c2c(NCCCCCCCCNc3c4ccccc4nc4c(OC)ccc(C)c34)c3ccccc3nc12
T/C (dose: 2.5 mg/kg/injection, schedule: Q01DX009 (ip), vehicle: water): 100 % of control | T/C (dose: 5.0 mg/kg/injection, schedule: Q01DX009 (ip), vehicle: water): 113 % of control | T/C (dose: 10.0 mg/kg/injection, schedule: Q01DX009 (ip), vehicle: water): 105 % of control

Cc1ccc(S(=O)(=O)/N=C2\CCN(S(=O)(=O)c3ccc(C)cc3)N2S(=O)(=O)c2ccc(C)cc2)cc1
T/C [9]: 97 % of control | T/C [10]: 94 % of control | T/C [11]: 97 % of control

NC(=O)c1cc2c(oc1=O)-c1ccccc1OC2
T/C [1]: 98 % of control | T/C [2]: 95 % of control | T/C (dose: 240.0 mg/kg/injection, schedule: Q01DX005 (ip), vehicle: saline with Tween-80): 95 % of control

Cc1c(-c2ccccc2)n(O)c(-c2ccccc2Cl)[n+]1[O-]
T/C [6]: 94 % of control | T/C [7]: 98 % of control | T/C [8]: 100 % of control

CC1=C(C(=O)NCc2ccccc2)C(c2cccc([N+](=O)[O-])c2)C(C(=O)NCc2ccccc2)=C(C)N1
T/C (dose: 15.0 mg/kg/injection, schedule: Q01DX005 (ip), vehicle: saline with Tween-80): 107 % of control | T/C (dose: 30.0 mg/kg/injection, schedule: Q01DX005 (ip), vehicle: saline with Tween-80): 90 % of control | T/C [1]: 87 % of control

CCOC(=O)Nc1cc(=O)c([N+](=O)[O-])c(N)[nH]1
T/C (dose: 60.0 mg/kg/injection, schedule: Q01DX005 (ip), vehicle: saline + Tween-80 + alcohol): 99 % of control | T/C (dose: 120.0 mg/kg/injection, schedule: Q01DX005 (ip), vehicle: saline + Tween-80 + alcohol): 101 % of control | T/C (dose: 240.0 mg/kg/injection, schedule: Q01DX005 (ip), vehicle: saline + Tween-80 + alcohol): 100 % of control

OC1CC2CC1CC2c1cnc[nH]1 (stereo unspecified)
T/C (dose: 12.5 mg/kg/injection, schedule: Q04DX002 (ip), vehicle: saline with Tween-80): 100 % of control | T/C (dose: 25.0 mg/kg/injection, schedule: Q04DX002 (ip), vehicle: saline with Tween-80): 100 % of control | T/C [12]: 100 % of control | T/C [13]: 100 % of control

CC(=O)n1c(Cl)c(C=O)c2ccccc21
T/C [3]: 99 % of control | T/C [4]: 99 % of control | T/C [5]: 100 % of control

Cc1c[n+]2ccc3ccccc3c2c2ccccc12
T/C (dose: 2.2 mg/kg/injection, schedule: Q01DX009 (ip), vehicle: Klucel (hydroxypropylcellulose) (HPC)): 119 % of control | T/C (dose: 2.5 mg/kg/injection, schedule: Q01DX009 (ip), vehicle: Klucel (hydroxypropylcellulose) (HPC)): 116 % of control | T/C (dose: 3.3 mg/kg/injection, schedule: Q01DX009 (ip), vehicle: Klucel (hydroxypropylcellulose) (HPC)): 120 % of control | T/C (dose: 5.0 mg/kg/injection, schedule: Q01DX009 (ip), vehicle: Klucel (hydroxypropylcellulose) (HPC)): 122 % of control

Cc1ccc(S(=O)(=O)/N=C2\CCN(S(=O)(=O)c3ccccc3)N2S(=O)(=O)c2ccc(C)cc2)cc1
T/C [9]: 99 % of control | T/C [10]: 90 % of control | T/C [11]: 94 % of control

[Cl][Pt+2][Cl].[NH-]CC1(C[NH-])CCC1
T/C (dose: 0.38 mg/kg/injection, schedule: Q01DX009 (ip), vehicle: saline): 114 % of control | T/C (dose: 0.38 mg/kg/injection, schedule: Q01DX009 (ip), vehicle: suspension in saline): 161 % of control | T/C (dose: 0.75 mg/kg/injection, schedule: Q01DX009 (ip), vehicle: suspension in saline): 215 % of control | T/C (dose: 1.5 mg/kg/injection, schedule: Q01DX005 (ip), vehicle: saline): 175 % of control | T/C (dose: 1.5 mg/kg/injection, schedule: Q01DX005 (ip), vehicle: suspension in saline): 161 % of control | T/C (dose: 1.5 mg/kg/injection, schedule: Q01DX009 (ip), vehicle: saline): 165 % of control | T/C (dose: 1.5 mg/kg/injection, schedule: Q01DX009 (ip), vehicle: suspension in saline): 247 % of control | T/C (dose: 3.0 mg/kg/injection, schedule: Q01DX005 (ip), vehicle: saline): 202 % of control | T/C (dose: 3.0 mg/kg/injection, schedule: Q01DX005 (ip), vehicle: suspension in saline): 191 % of control | T/C (dose: 3.0 mg/kg/injection, schedule: Q01DX009 (ip), vehicle: saline): 243 % of control | T/C (dose: 3.0 mg/kg/injection, schedule: Q01DX009 (ip), vehicle: suspension in saline): 159 % of control | T/C (dose: 6.0 mg/kg/injection, schedule: Q01DX005 (ip), vehicle: saline): 112 % of control | T/C (dose: 6.0 mg/kg/injection, schedule: Q01DX005 (ip), vehicle: suspension in saline): 198 % of control | T/C (dose: 6.0 mg/kg/injection, schedule: Q01DX009 (ip), vehicle: saline): 215 % of control | T/C (dose: 6.0 mg/kg/injection, schedule: Q01DX009 (ip), vehicle: suspension in saline): 119 % of control

O=C1NC(=S)NC(=O)C1=Cc1cccc2cc3ccccc3cc12
T/C (dose: 25.0 mg/kg/injection, schedule: Q01DX005 (ip), vehicle: Klucel (hydroxypropylcellulose) (HPC)): 100 % of control | T/C [9]: 89 % of control | T/C [10]: 95 % of control

CC(=Nc1cc(Cl)ccc1O)C1=C(O)c2ccccc2C1=O
T/C [12]: 94 % of control | T/C [13]: 97 % of control | T/C (dose: 200.0 mg/kg/injection, schedule: Q04DX002 (ip), vehicle: saline with Tween-80): 97 % of control

CC1(C)NC(=S)N(c2ccccc2C(=O)O)C2=C1CN(Cc1ccccc1)CC2
T/C (dose: 50.0 mg/kg/injection, schedule: Q01DX009 (ip), vehicle: saline): 100 % of control | T/C (dose: 100.0 mg/kg/injection, schedule: Q01DX009 (ip), vehicle: saline): 95 % of control | T/C (dose: 200.0 mg/kg/injection, schedule: Q01DX009 (ip), vehicle: saline): 105 % of control
